According to US7968551B2, “Chromenoneindoles” (Merck Patent GmbH, priority 2003, dated 2011):

Tests used:
[1] = test system: cortical serotonin level; assay: Microdialysis: effect on the cortical serotonin level in vivo; conditions: rats
Description: In order to determine the effect of the substances on the cortical serotonin level in rats in vivo, a microdialysis probe with a semipermeable membrane was implanted into the brain tissue and perfused with a solution matched to the composition of cerebrospinal fluid (see in this respect, for example, Di Chiara, Trends Pharmacol. Sci. 11, 117-121, 1990). The molecules of the extracellular space, such as, for example, also of the neurotransmitter serotonin, diffuse via this membrane into the interior of the probe in accordance with their concentration gradient. From there, they are transported with the perfusion stream to a collecting vessel. The serotonin concentration in the dialysate obtained in this way is subsequently determined by means of high-sensitivity analytical methods. The fractions obtained at regular intervals (of, for example, 15-20 minutes) thus reflect the concentration changes of the transmitter in question in the brain tissue over a period of several hours. The concentration of the serotonin in the dialysate is firstly measured without any influence. The substance to be tested is then applied, and the serotonin concentrations before and after administration of the substances are compared.

[2] = Absolute bioavailability from AUC after po and iv administration; assay type: in vivo; conditions: rat; Wistar rats, male; iv 0.2 mg/kg, po 0.5 mg/kg; plasma by LC/MS/MS
Method: The bioavailability was determined by a standard method described in many textbooks of pharmacokinetics with the aid of the AUC (area under the concentration/time curves) measured after po and iv administration. For the determination of the absolute bioavailability, the plasma concentration curve of the said substances was determined after intravenous (iv) and oral (po) administration to Wistar rats (male; N=3 animals/administration). The following experiment design was selected: • Administration method: iv and po • Dose: iv−0.2 mg/kg; po−0.5 mg/kg • Time of blood sampling for the determination of the plasma concentrations: • iv: 0.1, 0.5, 1, 2, 4, 6 and 24 h • po: 0.25, 0.5, 1, 2, 4, 6 and 24 h
The plasma concentrations were determined with the aid of LC/MS/MS.
The plasma concentrations were used to calculate the AUC (area under the concentration/time curve) in accordance with the so-called trapezium formula.
The bioavailability is obtained from the AUC in accordance with the following formula: Bioavailability [%]=100×(AUC po)/AUC iv)[…]

N#Cc1ccc2[nH]cc(CCCCN3CCN(c4ccc5oc(C(N)=O)cc5c4)CC3)c2c1 [EMD 68843, 5-{4-[4-(5-cyano-3-inolyl)butyl]-1-piperanzinyl}benzofuran-2-carboxamide, reference compound]
serotonin level in the brain (5-HT concentration in the dialysate), FIG. 1 ([1]; 1 mg/kg i.p.): comparable increase in the concentration of serotonin in the brain to EMD 135894

N#Cc1ccc2[nH]cc(CCCCN3CCN(c4ccc5oc(=O)ccc5c4)CC3)c2c1 [EMD 135894, 3-(4-(4-(2-oxo-2H-1-benzopyran-6-yl)-1-piperazinyl)butyl)indole-5-carbonitrile, reference compound]
bioavailability [2]: 10%

N#Cc1ccc2[nH]cc(CCCCN3CCN(c4ccc5oc(=O)c(N)cc5c4)CC3)c2c1 [EMD 480246, 3-{4-[4-(3-Amino-2-oxo-2H-chromen-6-yl)piperazin-1-yl]butyl}-1H-indole-5-carbonitrile]
serotonin level in the brain (5-HT concentration in the dialysate), FIG. 2 ([1]; 0.3 mg/kg i.p.): even higher serotonin level than EMD 391987

CCOC(=O)Nc1cc2cc(N3CCN(CCCCc4c[nH]c5ccc(C#N)cc45)CC3)ccc2oc1=O [EMD 480247, Ethyl(6-{4-[4-(5-cyano-1H-indol-3-yl)butyl]piperazin-1-yl}-2-oxo-2H-chromen-3-yl)carbamate]
bioavailability [2]: ~20%
serotonin level in the brain (5-HT concentration in the dialysate), FIG. 3 ([1]; 0.3 or 1.0 mg/kg i.p. compared with vilazodone 1 mg/kg): clearly superior action to vilazodone
